Structures are written as SMILES. pIC50: −log10 of the molar value.

The test system of assay [1] is male db/db mice. As to the kind of experiment: Insulin tolerance and liver function improvement test in male db/db mouse model. The assay is classed as in vivo. The method, then: Six-week-old male db/db mice were randomly divided into 6 groups of 12 mice in each group: Model group (M, distilled water), metformin group (Meft, 200 mg/kg/d), lovastatin group (6 mg/kg), compound 12 low dose group (20 mg/kg/d), compound 12 middle dose group (40 mg/kg/d), compound 12 high dose group (80 mg/kg/d). They were raised in a constant temperature of 25° C. and fed and drinking freely. The mice were administrated by gavage at a dose of […] for 6 weeks, and the body weight and fasting blood glucose were measured regularly during the period.
Insulin tolerance test (ITT) was performed with […] (1.0 U/ml, 1.0 U/kg) and fasting for 4 hours in the morning. In the afternoon experiment, weight was weighed, blood glucose was measured before insulin injection, insulin injection volume was calculated according to body weight, and blood glucose was measured at 15 min, 30 min, 45 min, and 60 min. At the end of the experiment, each cage was supplemented with feed.

The target in assay [2] is MNK1 (Homo sapiens, UniProt Q9BUB5). The experiment in a line: MNK1 kinase inhibition assay (LANCE Ultra kinase activity assay, PerkinElmer). The assay is classed as biochemical. Particulars: 450 μM ATP; for pIC50: five concentrations 10000-1 nM; for inhibition at 1 µM: inhibition rate at 1000 nM compound, 60 min, 25° C., read-out: Inhibitory activity(1 μM) MNK1. The method, then:
(§1) MNK1 and MNK2 kinase inhibition assays were performed using LANCE Ultra kinase activity assay developed by PerkinElmer. […] The test steps are as follows: At 25° C., 1.00 ng MNK1 or 0.05 ng MNK2 was prepared with different concentrations (10000, 1000, 100, 10, 1 nM) of the tested compound to form a total volume of 10 μL reaction mixture (MNK1: 12.5 nM CREB, 450 μM ATP, 2 mM DTT, 1× buffer; MNK2: 12.5 nM CREB, 100 μM ATP, 2 mM DTT, 1×buffer), and incubation for 60 min. The reaction was terminated by adding 5 μL EDTA/Detection buffer and 5 μL Eu-CREB/Detection buffer. The ratio of HTRF signals at 615 nm and 665 nm was detected after 60 min of incubation. The inhibition rate was calculated by measuring the compounds at 1000 nM.
(§2) Then five different concentrations (10000, 1000, 100, 10, 1 nM) of the tested compounds were measured, and the IC50 value was calculated according to the inhibition rate fitting curve.

The test system of assay [3] is C57BL/6J male mice, high-fat diet obesity model. As to the kind of experiment: Weight loss trial in a high-fat feeding obesity model. Particulars: obese C57BL/6J mice; 50 or 100 mg/kg daily gavage; after 1 month of treatment. Format: in vivo. The method, then: C57BL/6J male mice were fed with high-fat diet (60 kcal %) and low-fat diet (10 kcal %), respectively. After 16 weeks, the obesity model was successfully established (the body weight of high-fat diet was higher than 20% of the body weight of low-fat diet). They were divided into blank group, 12 high dose group (100 mg/kg), 12 low dose group (50 mg/kg) and orlistat group (50 mg/kg). The mice in the control group were given normal saline as the control, and the daily afternoon gavage of the drug for 4 weeks.

In assay [4] the test system is STZ+ high-fat fed type 2 diabetic Kunming mice. As to the kind of experiment: Hypoglycemic test in STZ+ high-fat fed diabetic mouse model. Format: in vivo. The conditions noted are these: for blood glucose: gavage, 8 weeks (FIG. 1). The procedure: A total of 50 male Kunming mice were fed in a constant temperature of 25° C. with free access to food and water. After 5 days of adaptive feeding, the mice were divided into two groups for the first time. The first group (n=10) was the blank group (C) fed with normal diet, and the rest were the second group (n=40) fed with 60% high-fat diet to induce high-fat model and free access to water for 4 weeks. At the fifth week, the mice in the second group were injected with streptozotocin (STZ) to induce type 2 diabetes model. The total injection dose was 150 mg/kg, and the feeding conditions were unchanged. Type 2 diabetic mice with blood glucose levels higher than 11 mmol/L were divided into model group (M, n=10) and […]. Distilled water), metformin group (Meft, 225 mg/kg/d), compound 12 low-dose group (2A-L, 50 mg/kg/d), compound 12 high-dose group (2A-H, 100 mg/kg/d). The […] in group M were given distilled water by gavage every morning, and the dosage was Meft: 225 mg/kg. 2A-L: 50 mg/kg; 2A-H: 100 mg/kg. The mice were administrated by gavage at a dose of […] for 8 weeks, and the body weight and fasting blood glucose were measured regularly during the period.

Assay [5] has as its target MNK2 (Homo sapiens, UniProt Q9HBH9). The experiment in a line: MNK2 kinase inhibition assay (LANCE Ultra kinase activity assay, PerkinElmer). Format: biochemical. The conditions noted are these: 100 μM ATP; for pIC50: five concentrations 10000-1 nM; for inhibition at 1 µM: inhibition rate at 1000 nM compound, 60 min, 25° C., read-out: Inhibitory activity(1 μM) MNK2. The procedure:
as §1, §2

The mark [6] stands for this setting: high-dose group (80 mg/kg/d) vs model group (FIG. 5).
Where [7] appears, read: compared with the model group (FIG. 3).

MNK1, sequence (Q9BUB5 whole entry): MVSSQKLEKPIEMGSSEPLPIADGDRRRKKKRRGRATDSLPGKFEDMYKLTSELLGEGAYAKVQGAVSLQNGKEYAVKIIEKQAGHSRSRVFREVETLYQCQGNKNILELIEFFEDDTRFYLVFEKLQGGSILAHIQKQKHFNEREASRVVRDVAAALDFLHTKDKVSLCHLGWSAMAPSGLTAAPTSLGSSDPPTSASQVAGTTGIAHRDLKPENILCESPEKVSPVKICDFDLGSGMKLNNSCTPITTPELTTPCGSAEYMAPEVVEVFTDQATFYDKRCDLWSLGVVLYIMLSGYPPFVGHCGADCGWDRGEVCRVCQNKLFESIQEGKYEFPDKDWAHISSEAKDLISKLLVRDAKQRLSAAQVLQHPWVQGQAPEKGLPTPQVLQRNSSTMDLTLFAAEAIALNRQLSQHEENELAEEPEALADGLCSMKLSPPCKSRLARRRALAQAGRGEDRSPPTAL
MNK2, sequence (Q9HBH9 whole entry): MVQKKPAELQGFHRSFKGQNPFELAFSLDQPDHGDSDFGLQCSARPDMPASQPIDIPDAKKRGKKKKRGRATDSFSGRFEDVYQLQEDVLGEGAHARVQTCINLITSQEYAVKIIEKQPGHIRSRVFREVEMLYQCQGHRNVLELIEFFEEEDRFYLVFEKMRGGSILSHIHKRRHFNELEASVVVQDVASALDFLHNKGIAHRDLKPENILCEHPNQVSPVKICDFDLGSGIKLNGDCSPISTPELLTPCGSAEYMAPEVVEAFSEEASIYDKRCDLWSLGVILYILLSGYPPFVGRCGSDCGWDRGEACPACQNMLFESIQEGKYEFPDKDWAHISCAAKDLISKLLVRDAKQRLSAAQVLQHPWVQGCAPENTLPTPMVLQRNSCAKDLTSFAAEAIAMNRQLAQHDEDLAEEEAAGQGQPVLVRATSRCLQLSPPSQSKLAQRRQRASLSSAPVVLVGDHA

On to `CN(C)C1CCN(C(=O)c2ccc(-c3nn4c(-c5ccc(C#N)cc5)cnc4s3)cc2)CC1` [Compound 12, 4-(2-(4-(4-(dimethylamino)piperidine-1-carbonyl)phenyl)imidazo[2,1-b][1,3,4]thiadiazol-5-yl)benzonitrile], for which, in assay [1] (FIG. 6), the “blood levels of GLP-1” value is given as “Increased”. The “serum content of insulin INS” value in assay [1] (after high dose administration (FIG. 6)) was “significantly increased”. Further, in assay [1] (at low doses (FIG. 6)), the “inflammatory cytokine IL-6” value is reported as “significantly decreased”, the “inflammatory cytokine TNF” value is on record as “significantly decreased” and the “plasma BNP” value is “significantly decreased”. Also, the “insulin sensitivity (insulin tolerance test, ITT)” value in assay [1] (db/db mice, gavage 6 weeks, each drug group, especially 12 high-dose group (80 mg/kg/d) (FIG. 4)) is “significantly improved”. In assay [1] (setting [6]), the “serum ALT” value is “significant decreases”, the “serum AST” value is reported as “significant decreases” and the “serum total bile acid content” value is “significant decreases”. Moreover, in assay [2], the negative logarithm of the IC50 (pIC50) (commonly the negative decadic logarithm of the IC50, by convention in mol/L) was greater than 7.30 and the inhibition at 1 µM is greater than 75%. The body weight result in assay [3] is recorded as “decreased significantly”. Also, the glucose tolerance result in assay [4] (50 and 100 mg/kg/d (FIG. 2)) is reported as “improved”. In addition, in assay [4] (FIG. 3), the “serum AST levels” value is reported as “significantly reduced”. Further, the “serum creatinine (CREA)” value in assay [4] (after administration, vs model group (FIG. 3)) is “decreased significantly”. In addition, in assay [4] (setting [7]), the “serum TC” value is recorded as “significantly decreased” and the “serum TG” value is “significantly decreased”. Moreover, in assay [4] (high dose group 100 mg/kg/d), the “hypoglycemic effect compared with positive control (metformin, 225 mg/kg)” value is reported as “better hypoglycemic effect than the positive control” and the blood glucose entry is listed as “significantly reduced”. Besides, in assay [4] (low and high dose groups vs model group, after intraperitoneal insulin (FIG. 2)), the “insulin sensitivity (insulin tolerance test)” value was “restored insulin sensitivity”. In assay [4] (low dose group 50 mg/kg/d), the “hypoglycemic effect compared with positive control (metformin, 225 mg/kg)” value is “equivalent to that of the positive control group” and the blood glucose result is recorded as “significantly reduced”. In assay [4] (metformin 225 mg/kg/d), the “reduction of TC compared with metformin” value is “even better than metformin”. Also, in assay [5], the pIC50 was greater than 7.30 and the inhibition at 1 µM was greater than 75%.
As for `N#Cc1ccc(-c2cnc3sc(-c4ccc(C(=O)NCCN5CCCC5)cc4)nn23)cc1` [Compound 38, 4-(5-(4-cyanophenyl)imidazo[2,1-b][1,3,4]thiadiazol-2-yl)-N-(2-(pyrrolidin-1-yl)ethyl)benzamide], in assay [2], the pIC50 was greater than 7.30 and the inhibition at 1 µM is greater than 75%. Also, in assay [5], the pIC50 is greater than 7.30 and the inhibition at 1 µM is greater than 75%.
With `N#Cc1ccc(-c2csc3nc(-c4ccc(C(=O)N5CCOCC5)cc4)cn23)cc1` [Compound 43, 4-(6-(4-(morpholine-4-carbonyl)phenyl)imidazo[2,1-b]thiazol-3-yl)benzonitrile], the inhibition at 1 µM in assay [2] and in assay [5] was 25 to 50% each time.
For `O=C(c1ccc(-c2nn3c(-c4ccc(F)cc4)cnc3s2)cc1)N1CCOCC1` [Compound 2, (4-(5-(4-fluorophenyl)imidazo[2,1-b][1,3,4]thiadiazol-2-yl)phenyl)(morpholino)methanone], the pIC50 is 6.10 to 6.70 in assay [2] and greater than 7.30 in assay [5]. The inhibition at 1 µM in assay [2] and in assay [5] was greater than 75% each time.
Consider `COc1ccc(-c2csc3nc(-c4ccc(C(=O)N5CCOCC5)cc4)cn23)cc1` [Compound 45, (4-(3-(4-methoxyphenyl)imidazo[2,1-b]thiazol-6-yl)phenyl)(morpholino)methanone], for which the inhibition at 1 µM in assay [2] and in assay [5] was 25 to 50% in each case.

Values taken from patent US20250042920A1 (OCEAN UNIVERSITY OF CHINA, priority 2021, published 2025).
